# From ChEMBL document CHEMBL1201862, “PubChem BioAssay data set” (2004)
# The source made the active and inactive calls.
# Key:
# [1] = Luminescence-based cell-based high throughput dose response assay to identify activators of the DAF-12 from the parasite S. stercoralis (ssDAF-12).; assay type: functional
# [2] = target: T1, Oxysterols receptor LXR-beta (Homo sapiens, UniProt P55055); test: LXR agonists, Gal4 luciferase reporter, dose response, counter-screen for ssDAF-12 agonist project, cell-based, luminescence, HEK293, S. stercoralis campaign (AID 720737); assay type: functional; settings: read-out: IC50 (the source's name)
# T1 sequence (P55055 whole entry): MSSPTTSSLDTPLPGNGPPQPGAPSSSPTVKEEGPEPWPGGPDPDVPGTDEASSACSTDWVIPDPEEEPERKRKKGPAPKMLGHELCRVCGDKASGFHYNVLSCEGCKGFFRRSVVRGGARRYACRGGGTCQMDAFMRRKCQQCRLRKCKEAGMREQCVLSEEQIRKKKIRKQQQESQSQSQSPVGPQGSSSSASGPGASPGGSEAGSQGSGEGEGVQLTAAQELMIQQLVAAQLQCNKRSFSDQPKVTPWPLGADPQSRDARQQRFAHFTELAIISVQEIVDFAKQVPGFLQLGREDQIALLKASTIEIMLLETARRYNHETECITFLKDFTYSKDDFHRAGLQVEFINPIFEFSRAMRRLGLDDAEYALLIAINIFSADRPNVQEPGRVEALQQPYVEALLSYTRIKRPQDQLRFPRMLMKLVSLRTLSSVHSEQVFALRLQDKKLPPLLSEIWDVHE
# [3] = target: T1, Oxysterols receptor LXR-beta; assay type: functional, cell-based
# cells [4] = test: cells
# Caspase-6 = target: T2, Caspase-6 (Homo sapiens, UniProt P55212); test: human caspase-6 inhibitors, dose response, biochemical, VEID-R110 fluorescence, cherry-pick (AID 720632)
# T2 sequence (P55212 whole entry): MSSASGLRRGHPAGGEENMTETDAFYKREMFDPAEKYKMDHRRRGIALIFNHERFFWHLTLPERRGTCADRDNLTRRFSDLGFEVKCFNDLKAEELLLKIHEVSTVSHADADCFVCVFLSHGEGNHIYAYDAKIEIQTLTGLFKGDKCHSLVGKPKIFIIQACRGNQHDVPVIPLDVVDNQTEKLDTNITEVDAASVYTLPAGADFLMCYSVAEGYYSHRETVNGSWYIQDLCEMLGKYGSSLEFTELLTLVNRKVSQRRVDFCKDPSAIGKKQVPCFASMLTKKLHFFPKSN
# Prothrombin = Prothrombin (Homo sapiens, UniProt P00734); test: Thrombin 1536 HTS Dose Response Confirmation. [Related pubchem assays: 1046 (Thrombin 1536 HTS; hits were confirmed in this assay)]; assay type: functional
# Hexokinase HKDC1 = target: T3, Hexokinase HKDC1 (Homo sapiens, UniProt Q2TB90); test: HKDC1 hexokinase inhibitors, dose response, biochemical, W721R variant (AID 504729); assay type: functional
# T3 sequence (Q2TB90 whole entry): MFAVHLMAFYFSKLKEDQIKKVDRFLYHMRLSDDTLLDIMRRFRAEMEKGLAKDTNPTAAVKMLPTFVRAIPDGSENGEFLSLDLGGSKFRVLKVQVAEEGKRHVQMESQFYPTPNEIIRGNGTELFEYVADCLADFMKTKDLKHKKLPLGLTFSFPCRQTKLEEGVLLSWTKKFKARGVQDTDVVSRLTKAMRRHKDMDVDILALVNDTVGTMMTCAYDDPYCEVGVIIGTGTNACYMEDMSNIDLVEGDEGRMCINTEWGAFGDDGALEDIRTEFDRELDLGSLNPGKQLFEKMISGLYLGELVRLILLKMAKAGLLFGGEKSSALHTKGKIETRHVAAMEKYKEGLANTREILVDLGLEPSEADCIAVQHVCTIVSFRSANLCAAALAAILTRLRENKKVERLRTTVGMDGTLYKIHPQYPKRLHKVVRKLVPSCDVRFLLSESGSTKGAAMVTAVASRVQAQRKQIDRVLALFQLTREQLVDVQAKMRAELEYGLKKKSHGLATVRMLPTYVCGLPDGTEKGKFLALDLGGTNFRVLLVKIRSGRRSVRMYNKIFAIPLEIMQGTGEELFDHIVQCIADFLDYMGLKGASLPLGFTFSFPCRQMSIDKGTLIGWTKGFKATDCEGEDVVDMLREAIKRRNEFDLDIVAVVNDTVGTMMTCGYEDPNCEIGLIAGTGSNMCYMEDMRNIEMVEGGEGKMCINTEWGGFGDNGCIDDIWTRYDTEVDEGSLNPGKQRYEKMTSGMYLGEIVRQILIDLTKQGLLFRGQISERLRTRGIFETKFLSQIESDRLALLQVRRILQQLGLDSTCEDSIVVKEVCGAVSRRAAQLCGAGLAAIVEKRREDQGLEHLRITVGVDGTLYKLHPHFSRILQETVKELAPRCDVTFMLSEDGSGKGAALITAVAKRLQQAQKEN
# [5] = reduction of Shn3 3'UTR firefly luciferase signal, dose response, Schnurri-3 inhibitor project, cell-based, Clone20 osteoblasts, cherry-pick, set 2 (AID 720490); assay type: functional;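 further: actives lower the luminescence signal as inhibitors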
# [6] = HepG2 cell cytotoxicity, dose response, cytotoxicity control for Shn3 inhibitor project, CellTiter-Glo, cherry-picked (AID 624134); assay type: functional, cell-based
# [7] = cytotoxicity in MIN6 insulinoma cells, dose response, cytotoxicity control, cell-based, mouse insulinoma (AID 2122); assay type: functional;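 further: confirmatory high-throughput counterscreen run to flag cytotoxic compounds; mouse MIN-6 beta cells carrying an insulin promoter eGFP reporter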
# [8] = Shn3 3'UTR reporter inhibitors, dose response, cell-based, Clone20 osteoblasts, firefly luciferase, cherry-picked (AID 624132); assay type: functional;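 further: firefly luciferase luminescence from reporter carrying the Shn3 3'UTR in osteoblasts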
# [9] = insulin promoter down-regulators in MIN6 cells, imaging, high-content screening, mouse beta cells (AID 1628); assay type: functional
# [10] = control 3'UTR Renilla luciferase suppression, dose response, counter-screen for Shn3 inhibitor project, cell-based, Clone20-Shn3RL, cherry-picked (AID 624133); assay type: functional
# [11] = ADAM10 protease inhibitors, dose response, selectivity assay for ADAM17 exosite inhibitor project, biochemical, FRET peptide substrate, recombinant human ADAM10 (AID 743259);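 further: ADAM10 enzyme cleaving a FRET peptide substrate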
# [12] = target: Disintegrin and metalloproteinase domain-containing protein 17 (Homo sapiens, UniProt P78536); test: exosite inhibitors of ADAM17, dose response, biochemical (AID 743260)
# [13] = cytotoxicity in KRAS-transformed pancreatic duct cells, primary screen, cell-based, fluorescence, HTS (AID 431); assay type: functional; settings: Homo sapiens;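 further: cell line used: HPDE-C7K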
# [14] = cytotoxicity in HPDE-C7 cells, cell-based, fluorescence, HTS (AID 430); assay type: functional; settings: Homo sapiens
# [15] = target: Cyclin-dependent kinase 5/CDK5 activator 1 (Homo sapiens, UniProt Q00535); test: CDK5/p35 kinase inhibitors, dose response, biochemical, cherry-picked samples, set 2 (AID 504545)
# Melanocortin receptor 4 = Melanocortin receptor 4 (Homo sapiens, UniProt P32245); assay type: functional, cell-based;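 further: Cell-based assay with luminescence read-out, confirmatory dose-response testing for agonist activity of biased ligands at MC4R; human U2OS cells with tagged receptor and beta-arrestin; potency of agonists that increase receptor coupling to beta-arrestin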
# [16] = non-specific cell cytotoxicity, dose response, cytotoxicity control for PAX8 inhibitor project, plate reader, dry powder samples (AID 743021); assay type: functional, cell-based
# Paired box protein Pax-8 = Paired box protein Pax-8 (Homo sapiens, UniProt Q06710); test: inhibitors of PAX8-driven TPO luciferase reporter, dose response, RMG-I cells, cherry-pick (AID 687027); assay type: functional, cell-based;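 further: luciferase reporter driven by Pax8 target thyroperoxidase promoter measured by SteadyGlo luminescence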
# [17] = target: T4, DNA repair protein RAD52 homolog (Homo sapiens, UniProt P43351); assay type: functional, biochemical
# T4 sequence (P43351 whole entry): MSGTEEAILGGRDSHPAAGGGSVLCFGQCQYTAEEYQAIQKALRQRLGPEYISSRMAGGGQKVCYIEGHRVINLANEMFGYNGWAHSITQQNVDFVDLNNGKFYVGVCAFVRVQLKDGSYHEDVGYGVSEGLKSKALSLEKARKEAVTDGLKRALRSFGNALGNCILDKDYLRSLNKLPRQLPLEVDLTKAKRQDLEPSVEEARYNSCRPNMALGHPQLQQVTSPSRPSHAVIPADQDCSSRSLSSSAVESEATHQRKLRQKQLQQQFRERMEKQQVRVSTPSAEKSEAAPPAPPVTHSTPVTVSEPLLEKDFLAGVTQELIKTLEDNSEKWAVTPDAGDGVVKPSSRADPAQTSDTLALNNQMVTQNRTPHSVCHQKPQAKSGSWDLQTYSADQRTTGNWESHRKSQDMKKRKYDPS
# [18] = cytotoxicity in COV362 ovarian cancer cells, dose response, cytotoxicity control for PAX8 inhibitor project, cell-based, plate reader, dry powder, SA12 (AID 743144); assay type: functional
# [19] = PAX5 activity inhibitors, dose response, selectivity assay for PAX8 inhibitor project, cell-based, plate reader, dry powder samples (AID 743047); assay type: functional;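 further: HEK293 cells carrying a Pax5 driven CD19 promoter luciferase reporter; potency of inhibitors that lower reporter luminescence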
# [20] = PAX2 cell-based inhibition, dose response, selectivity assay for PAX8 inhibitor project, plate reader, dry powder samples (AID 743048); assay type: functional;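 further: HEK293 cells carrying a WT1 promoter luciferase reporter driven by expressed Pax2; potency is for inhibition of Pax2 driven reporter signal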
# [21] = cytotoxicity in OV-90 ovarian cancer cells, dose response, PAX8 inhibitor project, cell-based, plate reader, dry powder, SA8 (AID 743149); assay type: functional
# [22] = cytotoxicity dependent on PAX8, dose response, cell-based, plate reader, dry powder (AID 743049); assay type: functional
# [23] = cytotoxicity toward NIH3T3 fibroblasts, dose response, counter-screen, cell-based, ATP luminescence, mouse fibroblasts (AID 2010); assay type: functional;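 further: cells exposed to compound for about 90 hours before reading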
# cells [24] = test: cells; remark: listed apart in the source
# [25] = inhibitors of intracellular T. cruzi replication, confirmation, NIH3T3 host cells, beta-gal luminescence (AID 2044); assay type: functional, cell-based;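 further: intracellular parasites grown in NIH/3T3 mouse fibroblasts as host cells; luminescent beta-galactosidase reporter signal from transgenic T. cruzi replicating inside host cells; inhibitors lower the luminescence signal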
# Beta-galactosidase = Beta-galactosidase (Escherichia coli, UniProt Q8VNN2); test: beta-galactosidase enzyme inhibitors and activators, dose response, artefact control for CCR6 antagonist project, biochemical, E. coli enzyme, set 3 (AID 504712); assay type: functional
# [26] = cytotoxicity toward HT-29 cells – cell-based, CellTiter-Glo luminescence, IC50, dose response (AID 1117330); assay type: functional
# [27] = Concentration-dependent survival of SW480 colon cancer line, luminescence detection with CellTiter-Glo, half-maximal inhibitory concentration (AID 1117338); assay type: functional
# [28] = CellTiter-Glo luminescent dose response of DLD-1 viability loss (AID 1117352); assay type: functional
# [29] = cytotoxicity toward Colo320 cells – cell-based, CellTiter-Glo luminescence, IC50, dose response (AID 1117334); assay type: functional; settings: COLO 320
# [30] = SNU-C1 cell viability reduction, dose response, CellTiter-Glo luminescence (AID 1117323); assay type: functional, cell-based
# [31] = cytotoxicity toward HCT116 cells – cell-based, CellTiter-Glo luminescence, IC50, dose response (AID 1117332); assay type: functional; settings: HCT-116
# [32] = RKO cell viability reduction, dose response, CellTiter-Glo luminescence (AID 1117322); assay type: functional
# Chain of Disintegrin and metalloproteinase domain-containing protein 17 (P78536 whole entry, the tested form may be a part): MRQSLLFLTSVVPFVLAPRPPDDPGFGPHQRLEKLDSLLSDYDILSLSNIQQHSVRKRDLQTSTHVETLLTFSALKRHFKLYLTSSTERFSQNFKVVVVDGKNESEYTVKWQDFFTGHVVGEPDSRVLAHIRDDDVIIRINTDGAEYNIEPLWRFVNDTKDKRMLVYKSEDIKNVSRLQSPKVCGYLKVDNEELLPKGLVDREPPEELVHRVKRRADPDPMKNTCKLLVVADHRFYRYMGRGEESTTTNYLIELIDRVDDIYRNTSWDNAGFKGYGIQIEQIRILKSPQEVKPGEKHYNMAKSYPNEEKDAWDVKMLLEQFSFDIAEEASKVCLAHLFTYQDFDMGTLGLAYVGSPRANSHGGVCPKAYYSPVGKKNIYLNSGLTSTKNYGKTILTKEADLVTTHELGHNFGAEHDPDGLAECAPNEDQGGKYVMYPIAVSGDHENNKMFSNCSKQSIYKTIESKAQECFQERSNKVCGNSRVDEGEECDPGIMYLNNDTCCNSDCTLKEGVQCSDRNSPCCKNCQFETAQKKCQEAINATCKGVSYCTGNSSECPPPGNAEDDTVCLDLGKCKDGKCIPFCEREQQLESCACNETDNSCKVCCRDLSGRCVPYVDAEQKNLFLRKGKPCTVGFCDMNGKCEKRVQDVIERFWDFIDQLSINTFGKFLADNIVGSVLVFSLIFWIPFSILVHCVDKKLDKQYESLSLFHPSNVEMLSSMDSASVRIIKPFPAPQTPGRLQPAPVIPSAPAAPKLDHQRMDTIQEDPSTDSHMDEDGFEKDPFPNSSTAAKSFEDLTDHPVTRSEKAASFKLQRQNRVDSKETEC
# Chain of Paired box protein Pax-8 (Q06710 whole entry): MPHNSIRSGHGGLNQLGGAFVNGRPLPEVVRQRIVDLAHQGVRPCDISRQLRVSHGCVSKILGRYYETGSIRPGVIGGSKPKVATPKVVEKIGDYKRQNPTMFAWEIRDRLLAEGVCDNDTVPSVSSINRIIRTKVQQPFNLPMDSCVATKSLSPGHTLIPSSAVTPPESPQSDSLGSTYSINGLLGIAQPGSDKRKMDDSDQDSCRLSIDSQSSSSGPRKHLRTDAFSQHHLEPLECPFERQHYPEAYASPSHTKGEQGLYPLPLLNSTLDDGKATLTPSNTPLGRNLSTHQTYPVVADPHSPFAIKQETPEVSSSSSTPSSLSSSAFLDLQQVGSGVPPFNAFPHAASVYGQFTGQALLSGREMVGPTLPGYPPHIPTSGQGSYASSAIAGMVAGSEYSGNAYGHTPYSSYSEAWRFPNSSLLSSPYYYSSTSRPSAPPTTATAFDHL
# Chain of Melanocortin receptor 4 (P32245 whole entry): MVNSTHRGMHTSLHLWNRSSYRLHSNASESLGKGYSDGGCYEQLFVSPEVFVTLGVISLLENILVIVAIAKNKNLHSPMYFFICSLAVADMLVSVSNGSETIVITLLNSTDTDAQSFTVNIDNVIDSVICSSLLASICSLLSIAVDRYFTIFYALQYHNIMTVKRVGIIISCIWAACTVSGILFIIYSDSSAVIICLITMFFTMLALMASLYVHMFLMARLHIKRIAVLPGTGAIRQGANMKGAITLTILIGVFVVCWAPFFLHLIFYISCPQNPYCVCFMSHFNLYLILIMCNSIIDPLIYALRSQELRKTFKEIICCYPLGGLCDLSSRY
# Chain of Cyclin-dependent kinase 5/CDK5 activator 1 (Q00535 whole entry): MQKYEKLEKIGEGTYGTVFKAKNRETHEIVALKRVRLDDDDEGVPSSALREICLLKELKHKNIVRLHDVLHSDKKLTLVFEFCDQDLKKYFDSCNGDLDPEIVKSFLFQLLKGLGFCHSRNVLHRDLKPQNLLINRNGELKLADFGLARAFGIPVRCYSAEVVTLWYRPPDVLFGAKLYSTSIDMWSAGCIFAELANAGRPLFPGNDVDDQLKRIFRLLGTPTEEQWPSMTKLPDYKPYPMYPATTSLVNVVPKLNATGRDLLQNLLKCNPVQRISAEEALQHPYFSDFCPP
# Chain of Cyclin-dependent kinase 5/CDK5 activator 1 (Q15078 whole entry, further chain): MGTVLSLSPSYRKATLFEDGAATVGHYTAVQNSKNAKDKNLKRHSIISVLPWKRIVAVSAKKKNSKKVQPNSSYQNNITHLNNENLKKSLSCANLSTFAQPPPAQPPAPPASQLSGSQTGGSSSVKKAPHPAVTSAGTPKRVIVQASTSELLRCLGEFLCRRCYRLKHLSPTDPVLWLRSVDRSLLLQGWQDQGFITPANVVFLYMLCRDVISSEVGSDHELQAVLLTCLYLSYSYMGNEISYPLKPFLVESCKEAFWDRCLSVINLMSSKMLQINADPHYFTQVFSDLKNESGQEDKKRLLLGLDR
# Chain of Beta-galactosidase (Q8VNN2 whole entry): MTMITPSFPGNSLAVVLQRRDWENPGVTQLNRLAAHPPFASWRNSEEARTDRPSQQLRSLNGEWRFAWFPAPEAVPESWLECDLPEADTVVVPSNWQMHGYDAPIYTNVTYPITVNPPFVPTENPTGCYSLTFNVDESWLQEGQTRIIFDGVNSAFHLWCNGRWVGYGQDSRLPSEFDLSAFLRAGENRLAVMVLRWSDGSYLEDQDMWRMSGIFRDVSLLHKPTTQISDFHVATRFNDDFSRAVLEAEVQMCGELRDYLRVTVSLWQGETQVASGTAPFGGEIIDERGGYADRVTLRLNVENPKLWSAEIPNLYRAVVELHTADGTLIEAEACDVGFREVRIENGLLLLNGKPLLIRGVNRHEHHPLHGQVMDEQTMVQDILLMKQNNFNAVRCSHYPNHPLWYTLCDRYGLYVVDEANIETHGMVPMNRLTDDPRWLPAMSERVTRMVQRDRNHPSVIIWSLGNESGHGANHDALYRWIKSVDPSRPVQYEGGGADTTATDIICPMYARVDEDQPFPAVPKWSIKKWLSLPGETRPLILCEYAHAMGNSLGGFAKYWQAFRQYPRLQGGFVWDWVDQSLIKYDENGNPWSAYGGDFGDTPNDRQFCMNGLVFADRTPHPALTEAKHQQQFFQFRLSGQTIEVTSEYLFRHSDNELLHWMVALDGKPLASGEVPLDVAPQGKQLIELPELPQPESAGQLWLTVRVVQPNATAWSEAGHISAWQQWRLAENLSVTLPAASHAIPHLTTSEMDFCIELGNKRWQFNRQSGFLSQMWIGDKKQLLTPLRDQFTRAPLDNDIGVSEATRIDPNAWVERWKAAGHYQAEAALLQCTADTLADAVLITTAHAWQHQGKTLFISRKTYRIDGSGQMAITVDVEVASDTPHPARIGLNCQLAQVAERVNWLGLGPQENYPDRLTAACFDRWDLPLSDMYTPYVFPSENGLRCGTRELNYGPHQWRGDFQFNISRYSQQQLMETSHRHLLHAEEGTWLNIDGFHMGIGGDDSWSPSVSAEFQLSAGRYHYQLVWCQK
structure (smiles),measurement,setting,value
O=C(Nc1ccc2c(c1)OCCO2)Nc1ccc2c(c1)OCO2,IC50,[1],> 67.6 µM (inactive)
same,EC50,[2],> 67.6 µM (inactive)
COc1ccccc1-c1nc(-c2ccc(Br)o2)no1,IC50,[1],> 67.5 µM (inactive)
same,EC50,[3],> 67.5 µM (inactive)
same,EC50,cells [4],> 67.5 µM (inactive)
same,EC50,[2],> 67.5 µM (inactive)
COc1ccc(CCN2CC(C(=O)NCCc3ccc(C)cc3)CC2=O)cc1OC (stereo unspecified),AC50,Caspase-6,20.1 µM (active)
COc1ccc(C2CC(c3ccccc3)=NN2C(=O)CN2CCN(Cc3ccccc3)CC2)cc1 (stereo unspecified),IC50,Prothrombin,> 50 µM (not active)
C#CCOCCOCCOCCNc1nc(N2CCN(C(=O)Cn3cc(CC(C)O)nn3)CC2)nc(N2CCN(C(=O)[C@H](C)n3cc(CCCN=C(N)N)nn3)CC2)n1 (stereo partly specified),IC50,Prothrombin,6.8 µM (active)
Nc1nc(CN2CCCCC2)cs1,IC50,Prothrombin,> 50 µM (not active)
O=Cc1[nH]c2ccccc2c1N(C(=O)CCl)c1ccccc1,IC50,Hexokinase HKDC1,43.4 µM (inactive)
CCN(CC)c1ccc(NC(=O)CN2C(=O)CSc3ncccc32)c(C)c1,AC50,[5],2.17 µM (active)
same,AC50,[6],31.9 µM (active)
same,IC50,[7],0.713 µM (active)
same,AC50,[8],1.78 µM (active)
same,IC50,[9],1.33 µM (active)
same,AC50,[10],10.2 µM (active)
CCOC(=O)c1ccc(NC(=O)C2CCCN(S(=O)(=O)c3ccc(F)cc3)C2)cc1 (stereo unspecified),IC50,[11],> 7.72 µM (active)
same,IC50,[12],> 69.5 µM (inactive)
COc1ccc2c(=O)c(-c3nc(C)cs3)coc2c1,EC50,[3],> 67.5 µM (inactive)
same,EC50,cells [4],> 67.5 µM (inactive)
Cc1ccc2nc(-c3ccccc3)cc(O)c2c1,IC50,[1],> 67.5 µM (inactive)
same,EC50,[13],1.14 µM (active)
same,EC50,[14],0.91 µM (active)
same,EC50,[2],> 67.5 µM (inactive)
O=C(Cc1ccc(O)cc1)NCCN=C(S)NCc1ccccc1,AC50,[15],27.6 µM (active)
CN(C)CCNC(=O)c1cccc(-c2cnc3c(NC=O)cc(-c4cccc(C(F)(F)F)c4)cn23)c1,EC50,Melanocortin receptor 4,> 89.2 µM (inactive)
same,AC50,[16],54.8 µM (active)
same,AC50,Paired box protein Pax-8,9.07 µM (active)
same,AC50,[17],2.4 µM (active)
COc1cccc(C#Cc2ccc([C@H]3[C@@H](C#N)N(C(=O)c4ccccn4)[C@@H]3CO)cc2)c1,AC50,[18],43.7 µM (active)
same,AC50,Paired box protein Pax-8,15 µM (active)
same,AC50,[19],15.2 µM (active)
same,AC50,[20],14.1 µM (active)
same,AC50,[21],> 70 µM (inactive)
same,AC50,[22],47.3 µM (active)
CCOC(=O)N1CCN(C(=O)C[C@H]2C[C@@]3(C(=O)OC)C(=C[C@H](C(C)C)O[C@@H]3C3CC3)N(Cc3ccc(Cl)cc3Cl)C2=O)CC1,IC50,[11],16.4 µM (inactive)
same,IC50,[12],> 69.5 µM (inactive)
C/C(CC1CC2=C(CC1(C)C)C(C)(C)CCC2)=N\NC(N)=S (stereo unspecified),EC50,[23],> 60 µM (not active)
same,EC50,cells [24],0.139 µM (active)
same,EC50,[25],< 0.1 µM (active)
same,IC50,Beta-galactosidase,> 66.6 µM (inactive)
CCc1ccc(NC(=O)CO/N=C(\C)c2cc3ccccc3o2)cc1,IC50,[11],> 69.5 µM (inactive)
same,IC50,[12],> 69.5 µM (inactive)
CC(C)=CC1C(C(=O)OCN2C(=O)C3=C(CCCC3)C2=O)C1(C)C (stereo unspecified) [TETRAMETHRIN],IC50,[26],> 20 µM (inactive)
same,IC50,[27],> 20 µM (inactive)
same,IC50,[28],> 20 µM (inactive)
same,IC50,[29],> 20 µM (inactive)
same,IC50,[30],> 20 µM (inactive)
same,IC50,[31],> 20 µM (inactive)
same,IC50,[32],> 20 µM (inactive)
